Data taken from EP0497314A1, “Use of azapirones in attention deficit hyperactivity disorder” (Bristol-Myers Squibb Company, priority 1991, dated 1992).
Where a name gives a salt, the structure may show the parent alone. Marks after values point to notes of the source that are not given here.

Tests used:
rabbit cortex = experiment: Quantitative EEG, rabbit cortex, intravenous administration; assay type: in vivo, rabbits; details: for group percent change in electrical energy from pre-drug control, Δ band / mean change ± S.E. in electrical energy from pre-drug control, Δ band: Δ = 0.5-3.5 Hz; for group percent change in electrical energy from pre-drug control, α band / mean change ± S.E. in electrical energy from pre-drug control, α band: α= 7-13 Hz; for group percent change in electrical energy from pre-drug control, β band / mean change ± S.E. in electrical energy from pre-drug control, β band: β= 13-25 Hz; for group percent change in electrical energy from pre-drug control, γ band / mean change ± S.E. in electrical energy from pre-drug control, γ band: γ= 25-40 Hz; for group percent change in electrical energy from pre-drug control, θ band / mean change ± S.E. in electrical energy from pre-drug control, θ band: θ= 3.5-7.0 Hz
Procedure: At least 2 weeks were allowed for recovery before beginning experimentation.
Groups of four animals each were individually restrained and connected to an EEG amplifier and frequency analyzer. The EEG of each animal was recorded on a separate channel. The instrumentation filtered each channel of EEG analog data into five distinct frequency bands: Δ=0.5-3.5 Hz, ϑ=3.5-7.0 Hz, α=7-13 Hz, β=13-25 Hz and γ=25-40 Hz. The EEG analyzer then integrated the filtered waveforms and sent pulses to an associated computer at a rate proportional to the electrical energy of each band. Thus, one computer print-out provided a cortical EEG profile for the entire group of four rabbits.
Data from a one-hour recording period were collected in four 15-minute periods, which provided additional information concerning both onset and time of peak effect of drug activity. However, in this report only the mean activity of the four data collection periods was considered since onset of drug activity was immediate and duration of action was at least one hour for all drugs studied. Drug-induced EEG changes were determined by comparing the post-treatment print-out to the pretreatment control in the same animal and statistical analysis was performed on change from control, in counts, using multiple Student-t paired-comparison tests with p≦0.05 (Table 1). However, for clarity data are also presented as percent change from control (Figures 1 and 2).
All drugs were administered intravenously in saline solution as their respective salts and all dosage calculations were based on the free base. Recording was started immediately after injection and animals were not used more often than once per week. Initial doses were reduced geometrically until a no-effect dose was determined for each drug. However, only the "no-effect" data and the data generated from the next higher dose are presented in this report since the shape of the EEG profile is not dose-related, as opposed to the magnitude of the response which is dose-related.

[1] = system: fronto-occipital cortex of the cat; experiment: Quantitative EEG, fronto-occipital cat cortex, subcutaneous administration; assay type: in vivo, cats; details: for group percent change in electrical energy from pre-drug control, Δ band / mean change ± S.E. in electrical energy from pre-drug control, Δ band / group percent change in electrical energy from pre-drug control, α band / mean change ± S.E. in electrical energy from pre-drug control, α band / group percent change in electrical energy from pre-drug control, β band / mean change ± S.E. in electrical energy from pre-drug control, β band / group percent change in electrical energy from pre-drug control, γ band / mean change ± S.E. in electrical energy from pre-drug control, γ band / group percent change in electrical energy from pre-drug control, θ band / mean change ± S.E. in electrical energy from pre-drug control, θ band: fronto-occipital cat cortex; for group percent change in electrical energy from pre-drug control, Δ band / mean change ± S.E. in electrical energy from pre-drug control, Δ band: Δ = 0.5-3.5 Hz; for group percent change in electrical energy from pre-drug control, α band / mean change ± S.E. in electrical energy from pre-drug control, α band: α= 7-13 Hz; for group percent change in electrical energy from pre-drug control, β band / mean change ± S.E. in electrical energy from pre-drug control, β band: β= 13-25 Hz; for group percent change in electrical energy from pre-drug control, γ band / mean change ± S.E. in electrical energy from pre-drug control, γ band: γ= 25-40 Hz; for group percent change in electrical energy from pre-drug control, θ band / mean change ± S.E. in electrical energy from pre-drug control, θ band: θ= 3.5-7.0 Hz
Excerpt: This unique combination of activity may render buspirone useful in the treatment of childhood hyperkinesis which has been reported to respond to both selected phenothiazine and stimulant drugs. • (b) Adult mongrel female cats weighing 2.5-4.0 kg were implanted with EEG recording electrodes. Recording sites were as follows: fronto-occipital cortex, basal amygdala and ventral hippocampus.
Animals were individually held in canvas feline restraining bags for EEG recording. The EEG of each brain area was recorded on a separate channel. The instrumentation filtered each channel of EEG and analog data into five distinct frequency bands: Δ=0.5-3.5 Hz, ϑ=3.5-7.0 Hz, α=7-13 Hz, β=13-25 Hz and γ=25-40 Hz. The EEG analyzer then integrated the filtered waveforms and sent pulses to an associated computer at a rate proportional to the electrical energy of each band. Data collecting procedures were essentially the same as reported in Example 1. However, groups of six animals each were used and all drugs were administered subcutaneously in saline solution as their respective salts, but all dosages were calculated as the free base. Recording was started 30 minutes after injection to insure adequate drug absorption for peak activity.
Drug-induced EEG changes were determined by comparing the post-treatment data to the pre-treatment control in the same animal. Statistical analysis was performed on change from control, in instrument counts, using multiple Student-t-paired-comparison test with P≦0.05 (Table 2). However, for clarity data are also presented as percent change from control (Figures 3, 4 and 5).
The data in Table 2 are drug-induced changes resulting from the minimum and higher doses of each compound required to elicit the EEG profile characteristic of that particular drug.

[2] = rabbit cortex, 0.125 mg/kg free base i.v.
[3] = rabbit cortex, 0.25 mg/kg free base i.v.

CN(C)CCCN1c2ccccc2Sc2ccc(Cl)cc21 [Chlorpromazine HCl, chlorpromazine]
minimal effective dose (rabbit cortex; Oryctolagus cuniculus, iv, rabbit cortex EEG, dose of free base, read-out: the minimum dose required to produce the EEG profile characteristic of that particular drug): 0.25 mg/kg | relative potency by comparing minimal doses required to elicit EEG profiles (rabbit cortex; rabbit cortex EEG, i.v.): approximately twice as potent as buspirone | the no-effect dose (rabbit cortex; rabbit cortex EEG, dose of free base): 0.125† mg/kg, i.v. | EEG profile (rabbit cortex; rabbit cortex, i.v.): completely different from that produced by stimulant drugs | group percent change in electrical energy from pre-drug control, Δ band (rabbit cortex; [2]): +15% | mean change ± S.E. in electrical energy from pre-drug control, Δ band (rabbit cortex; [2]): +30 ± 17 instrument counts | group percent change in electrical energy from pre-drug control, Δ band (rabbit cortex; [3]): +75% | mean change ± S.E. in electrical energy from pre-drug control, Δ band (rabbit cortex; [3]): +198 ± 51 instrument counts | group percent change in electrical energy from pre-drug control, α band (rabbit cortex; [2]): +14% | mean change ± S.E. in electrical energy from pre-drug control, α band (rabbit cortex; [2]): +21 ± 19 instrument counts | group percent change in electrical energy from pre-drug control, α band (rabbit cortex; [3]): +42% | mean change ± S.E. in electrical energy from pre-drug control, α band (rabbit cortex; [3]): +65 ± 18 instrument counts | group percent change in electrical energy from pre-drug control, β band (rabbit cortex; [2]): +10% | mean change ± S.E. in electrical energy from pre-drug control, β band (rabbit cortex; [2]): +12 ± 11 instrument counts | group percent change in electrical energy from pre-drug control, β band (rabbit cortex; [3]): +30% | mean change ± S.E. in electrical energy from pre-drug control, β band (rabbit cortex; [3]): +42 ± 13 instrument counts | group percent change in electrical energy from pre-drug control, γ band (rabbit cortex; [2]): -3% | mean change ± S.E. in electrical energy from pre-drug control, γ band (rabbit cortex; [2]): -3 ± 2 instrument counts | group percent change in electrical energy from pre-drug control, γ band (rabbit cortex; [3]): +5% | mean change ± S.E. in electrical energy from pre-drug control, γ band (rabbit cortex; [3]): +4 ± 1 instrument counts | group percent change in electrical energy from pre-drug control, θ band (rabbit cortex; [2]): +13% | mean change ± S.E. in electrical energy from pre-drug control, θ band (rabbit cortex; [2]): +20 ± 17 instrument counts | group percent change in electrical energy from pre-drug control, θ band (rabbit cortex; [3]): +33% | mean change ± S.E. in electrical energy from pre-drug control, θ band (rabbit cortex; [3]): +65 ± 22 instrument counts | minimal effective dose ([1]; Felis catus, sc, fronto-occipital cat cortex EEG, dose of free base, read-out: the minimum dose required to produce the EEG profile characteristic of that particular drug): 1 mg/kg | the no-effect dose ([1]; fronto-occipital cat cortex EEG, dose of free base): 0.5† mg/kg, s.c. | group percent change in electrical energy from pre-drug control, Δ band ([1]; 0.5 mg/kg free base s.c.): +6% | mean change ± S.E. in electrical energy from pre-drug control, Δ band ([1]; 0.5 mg/kg free base s.c.): +14 ± 23 instrument counts | group percent change in electrical energy from pre-drug control, Δ band ([1]; 1.0 mg/kg free base s.c.): +25% | mean change ± S.E. in electrical energy from pre-drug control, Δ band ([1]; 1.0 mg/kg free base s.c.): +46 ± 16 instrument counts | group percent change in electrical energy from pre-drug control, Δ band ([1]; 4.0 mg/kg free base s.c.): +56% | mean change ± S.E. in electrical energy from pre-drug control, Δ band ([1]; 4.0 mg/kg free base s.c.): +83 ± 13 instrument counts | group percent change in electrical energy from pre-drug control, α band ([1]; 0.5 mg/kg free base s.c.): +19% | mean change ± S.E. in electrical energy from pre-drug control, α band ([1]; 0.5 mg/kg free base s.c.): +23 ± 14 instrument counts | group percent change in electrical energy from pre-drug control, α band ([1]; 1.0 mg/kg free base s.c.): +25% | mean change ± S.E. in electrical energy from pre-drug control, α band ([1]; 1.0 mg/kg free base s.c.): +33 ± 8 instrument counts | group percent change in electrical energy from pre-drug control, α band ([1]; 4.0 mg/kg free base s.c.): +38% | mean change ± S.E. in electrical energy from pre-drug control, α band ([1]; 4.0 mg/kg free base s.c.): +33 ± 2 instrument counts | group percent change in electrical energy from pre-drug control, β band ([1]; 0.5 mg/kg free base s.c.): +6% | mean change ± S.E. in electrical energy from pre-drug control, β band ([1]; 0.5 mg/kg free base s.c.): +6 ± 5 instrument counts | group percent change in electrical energy from pre-drug control, β band ([1]; 1.0 mg/kg free base s.c.): +9% | mean change ± S.E. in electrical energy from pre-drug control, β band ([1]; 1.0 mg/kg free base s.c.): +13 ± 6 instrument counts | group percent change in electrical energy from pre-drug control, β band ([1]; 4.0 mg/kg free base s.c.): -3% | mean change ± S.E. in electrical energy from pre-drug control, β band ([1]; 4.0 mg/kg free base s.c.): -3 ± 5 instrument counts | group percent change in electrical energy from pre-drug control, γ band ([1]; 0.5 mg/kg free base s.c.): -13% | mean change ± S.E. in electrical energy from pre-drug control, γ band ([1]; 0.5 mg/kg free base s.c.): -10 ± 4 instrument counts | group percent change in electrical energy from pre-drug control, γ band ([1]; 1.0 mg/kg free base s.c.): -10% | mean change ± S.E. in electrical energy from pre-drug control, γ band ([1]; 1.0 mg/kg free base s.c.): -10 ± 5 instrument counts | group percent change in electrical energy from pre-drug control, γ band ([1]; 4.0 mg/kg free base s.c.): -14% | mean change ± S.E. in electrical energy from pre-drug control, γ band ([1]; 4.0 mg/kg free base s.c.): -11 ± 3 instrument counts | group percent change in electrical energy from pre-drug control, θ band ([1]; 0.5 mg/kg free base s.c.): +15% | mean change ± S.E. in electrical energy from pre-drug control, θ band ([1]; 0.5 mg/kg free base s.c.): +22 ± 15 instrument counts | group percent change in electrical energy from pre-drug control, θ band ([1]; 1.0 mg/kg free base s.c.): +20% | mean change ± S.E. in electrical energy from pre-drug control, θ band ([1]; 1.0 mg/kg free base s.c.): +28 ± 10 instrument counts | group percent change in electrical energy from pre-drug control, θ band ([1]; 4.0 mg/kg free base s.c.): +53%
